In US7141585B2 (dated 2006):

With `CCOC(=O)c1c(Cc2cc(Cl)cc(Cl)c2)c(C)nn1CCO` the melting point was 105.8 to 107.5 °C.
